Source: US20020150621A1, “Lipid-protein-sugar particles for drug delivery” (priority 2000, published 2002)
Like-named read-outs stand apart in the source and are kept apart here.

Assays:
sciatic nerve = test: Sciatic nerve block, thermal nociception (modified hotplate test); assay type: in vivo, rat; conditions: 1.5 ml of 0.5% bupivacaine (7.5 mg), n=6, rats approx. 410 g
Method: (§1) Prior to nerve block injections, rats were anesthetized briefly (<2 minutes) with halothane. […] A 20G needle was introduced postero-medial to the greater trochanter, pointing in an anteromedial direction (Thalhammer et al. “Neurologic evaluation of the rat during sciatic nerve block with lidocaine” Anesthesiology 82:1013-1025, 1995; incorporated herein by reference). Once bone was contacted, the needle was withdrawn 1 mm and the particle-containing solution was injected. The left leg was always used for blocks; the right served as control.
The effectiveness of block was measured at various time points, applying the methods of Thalhammer et al. (Thalhammer et al. “Neurologic evaluation of the rat during sciatic nerve block with lidocaine” Anesthesiology 82:1013-1025, 1995; […]; incorporated herein by reference).
Nociceptive block was assessed by a modified hotplate test (Masters et al. “Prolonged regional nerve blockade by controlled release of local anesthetic from a biodegradable polymer matrix” Anesthesiology 79:1-7, 1993; incorporated herein by reference). Hind paws were exposed in sequence (left then right) to a hot plate at 56° C. (Model 39D Hot Plate Analgesia Meter, IITC Inc., Woodland Hills, Calif.), and the time (latency) until paw withdrawal was measured by a stopwatch. Thermal latency is a measure of the intensity of analgesia. […]

[1] = Systemic distribution/toxicity after sciatic injection (contralateral thermal latency, deaths); assay type: in vivo, rat; conditions: 1.5 ml of 0.5% bupivacaine (7.5 mg), n=6
Method: as §1
Nociceptive block was assessed by a modified hotplate test (Masters et al. “Prolonged regional nerve blockade by controlled release of local anesthetic from a biodegradable polymer matrix” Anesthesiology 79:1-7, 1993; incorporated herein by reference). Hind paws were exposed in sequence (left then right) to a hot plate at 56° C. (Model 39D Hot Plate Analgesia Meter, IITC Inc., Woodland Hills, Calif.), and the time (latency) until paw withdrawal was measured by a stopwatch. Thermal latency is a measure of the intensity of analgesia. If the paw remained in contact for 12 seconds, it was removed by the experimenter to avoid injury to the animal or the development of hyperalgesia. This test was repeated three times for each rat at every time-point.

[2] = Median lethal dose of bupivacaine (literature); assay type: in vivo; conditions: in a 350 g rat
Method: Encapsulation improved the safety and efficacy of bupivacaine. […] For this experiment larger rats (approx. 410 g) were used than those used in the remainder of the study, in order to avoid animal death (the median lethal dose of bupivacaine in adult rats is 30±5 mg/kg (Kohane et al. “Sciatic nerve blockade in infant, adolescent, and adult rats: a comparison of ropivacaine and bupivacaine” Anesthesiology 89:1199-1208, 1998; incorporated herein by reference), or 10.5 mg in a 350 g rat). […] It was not possible to directly compare the efficacy of bupivacaine solution and 50% bupivacaine microspheres, since the dose of bupivacaine contained in 75 mg of those microspheres ([…]) is approximately three times the median lethal dose of the unencapsulated drug (Kohane et al. “Sciatic nerve blockade in infant, adolescent, and adult rats: a comparison of ropivacaine and bupivacaine” Anesthesiology 89:1199-1208, 1998). Nevertheless, it is obvious that the microspheres increased the safety of bupivacaine.

[3] = adult rats; Kohane et al. 1998; cited from earlier work

Question: With `CCCCN1CCCCC1C(=O)Nc1c(C)cccc1C` (stereo not shown) [bupivacaine] as the compound, how does the duration of block (sciatic nerve) read?
Answer: The duration of block was 166 ± 55 min.

Question: And the “rats with severe signs of systemic toxicity (thermal latency=12 seconds in the uninjected leg)” value [1]?
Answer: The value was “one of those rats”.

Question: What about the median lethal dose [2] of the same compound?
Answer: Its median lethal dose is 10.5 mg.

Question: What about the median lethal dose [3] of the same compound?
Answer: Its median lethal dose is 30 ± 5 mg/kg.
